Measured values as given in patent publication US11286268B1, “EIF4E-inhibiting compounds and methods” (EFFECTOR THERAPEUTICS, INC., priority 2019, dated 2022).
Read-outs that look alike come from different tables or passages of the source.

Molecular target: recombinant eIF4E (Homo sapiens (Human), UniProt P06730)
Assay: Fluorescence polarization competition assay for eIF4E binding potency
How it was run: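 IC50 derived from fluorescence polarization over an 8-point, 3-fold compound series after 30 min room-temperature equilibration in the dark. Mix: eIF4E 75 nM pre-bound 5 min to 20 nM EDA-m^7GDP-ATTO-550; buffer 20 mM Tris pH 7.5, 100 mM NaCl, 1 mM DTT, 0.02% Tween-20; DMSO 1%.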

[1] = inhibition of eIF4E/EDA-m7GDP-ATTO-550 binding, calculated IC50 values, Table 4B, read-out: IC50
[2] = fluorescence polarization competition, 75 nM recombinant eIF4E, 20 nM EDA-m7GDP-ATTO-550, IC50 class, read-out: elF4E FP
[3] = inhibition of eIF4E/EDA-m7GDP-ATTO-550 binding by 50%, Table 4B calculated values, read-out: IC50

Sequence of recombinant eIF4E (P06730 whole entry): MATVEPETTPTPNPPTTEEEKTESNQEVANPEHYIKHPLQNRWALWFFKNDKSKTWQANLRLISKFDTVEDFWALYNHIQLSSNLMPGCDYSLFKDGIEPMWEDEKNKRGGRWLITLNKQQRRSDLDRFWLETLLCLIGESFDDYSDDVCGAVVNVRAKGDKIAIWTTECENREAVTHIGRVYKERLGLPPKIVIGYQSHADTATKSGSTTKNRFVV

| Structure (SMILES) | IC50 [1] [µM] | IC50 [2] [µM] | IC50 [3] [µM] |
| --- | --- | --- | --- |
| Cc1c(C(F)(F)F)c(N2CCN(C)CC2)c(C#N)c2c(=O)n(CCOc3ccc(Cl)cc3-c3ccnc4c(C(=O)O)csc34)c(C)nc12 [compound 1934] | 0.0385 |  |  |
| Cc1nc2cnc(-c3cccc(CN(C)CC(F)F)c3)c(C#N)c2c(=O)n1CC#Cc1ccc(Cl)cc1-c1ccnc2c(C(=O)O)csc12 [compound 1559] | 0.0134 |  |  |
| Cc1cc(-c2cc(Cl)ccc2OCCn2c(C)nc3cc(C(F)(F)F)cc(C#N)c3c2=O)c2scc(C(=O)O)c2n1 [compound 121] |  | < 0.05 | 0.0375 |
| Cc1cc2nccc(-c3cc(Cl)ccc3OCCn3c(C)nc4cc(C(F)(F)F)c(N5CCN(C)CC5)c(C#N)c4c3=O)c2s1 [compound 1248] | 0.0607 | 0.05 to 1 |  |
| COc1c(N)cc(-c2cc(Cl)ccc2OCCn2cnc3cnc(C#N)cc3c2=O)cc1C(=O)O [compound 114] |  | 0.05 to 1 | 0.333 |
| N#Cc1cc2c(=O)n(CCOc3ccc(Cl)cc3-c3cc(C(=O)O)c4ccccc4n3)cnc2cn1 [compound 99] |  | > 1 | 3.42 |
| Cc1nc2cnc(N3CCC4(CC3)CCN4CC(F)F)c(C#N)c2c(=O)n1CCOc1ccc(Cl)cc1-c1ccnc2c(C(=O)O)csc12 [compound 1647] | 0.0196 |  |  |
| Cc1cc(-c2cc(Cl)ccc2OCCn2c(C)nc3cc(C(F)(F)F)c(-c4cn(C)nc4C)c(C#N)c3c2=O)c2scc(C(=O)O)c2n1 [compound 1031] |  | < 0.05 | 0.0116 |
| Cc1cc(-c2cc(Cl)ccc2OCCn2c(C)nc3cnc(N4CCc5ccccc54)c(C#N)c3c2=O)c2scc(C(=O)O)c2n1 [compound 982] |  | < 0.05 | 0.0204 |
| Cc1nc2cc(C(F)(F)F)c(N3CCN(c4cccnc4)CC3)c(C#N)c2c(=O)n1CCOc1ccc(Cl)cc1-c1cccc(C(=O)O)c1 [compound 380] |  | < 0.05 | 0.0297 |
| O=C(O)c1cccc(-c2cc(Cl)ccc2OCCn2c(Nc3ccccc3)nc3c(O)nccc3c2=O)c1 [compound 2000] | 18.2 |  |  |
| Cc1nc2c(F)cc(S(=O)(=O)N(C)C)c(C#N)c2c(=O)n1CCOc1ccc(Cl)cc1-c1ccnc2c(C(=O)O)csc12 [compound 288] |  | < 0.05 | 0.0461 |
| Cc1nc2c(N(C)C3CCN(C)C(C(F)F)C3)ncc(C#N)c2c(=O)n1CCOc1ccc(Cl)cc1-c1ccnc2c(C(=O)O)csc12 (stereo not drawn) [compound 864] |  | < 0.05 | 0.0479 |
| CCc1ncc(-c2c(C(F)(F)F)cc3nc(C)n(CCOc4ccc(Cl)cc4-c4cc(C)nc5c(C(=O)O)csc45)c(=O)c3c2C#N)cc1F [compound 1911] | 0.00403 |  |  |
| Cc1nc2cnc(N(C)C3CCN(C4CC(F)(F)C4)CC3)c(C#N)c2c(=O)n1CC#Cc1ccc(Cl)cc1-c1ccnc2c(C(=O)NS(=O)(=O)c3cccnc3)csc12 [compound 1831] | 0.005 |  |  |
| Cc1nc2cnc(C#N)cc2c(=O)n1CCOc1ccc(Cl)cc1-c1ccnc(C(=O)O)c1 [compound 134] |  | 0.05 to 1 | 0.116 |
| Cc1nc2ccc(C#N)c(C#N)c2c(=O)n1CCOc1ccc(Cl)cc1-c1ccnc2c(C(=O)O)csc12 [compound 228] |  | < 0.05 | 0.0235 |
| Cc1cc(-c2cc(Cl)ccc2OCCn2c(C)nc3cnc(N4CC5CCC(C4)N5C)c(C#N)c3c2=O)c2sc(C)c(C(=O)O)c2n1 [compound 868] |  | < 0.05 | 0.0172 |
| Cc1nc2cnc(N3CC4(CCN4CC(F)F)C3)c(C#N)c2c(=O)n1CCOc1ccc(Cl)cc1-c1ccnc2c(C(=O)O)csc12 [compound 1634] | 0.0174 |  |  |
| Cc1nc2cc(C(F)(F)F)c(N3CCN(C)CC3)c(C#N)c2c(=O)n1CC#Cc1ccc(Cl)cc1-c1ccnc2c(C(=O)O)csc12 [compound 1212] | 0.0442 | < 0.05 |  |

| Structure (SMILES) | IC50 [1] [µM] | IC50 [2] [µM] | IC50 [3] [µM] |
| --- | --- | --- | --- |
| Cc1cc(-c2cc(Cl)ccc2OCCn2c(C)nc3cc(C(F)(F)F)c(C4CC4)c(C#N)c3c2=O)c2scc(C(=O)O)c2n1 [compound 1049] |  | < 0.05 | 0.00935 |
| Cc1cc(-c2cc(Cl)ccc2OCCn2c(C)nc3cnc(OC4CNC4)c(C#N)c3c2=O)c2sc(C)c(C(=O)O)c2n1 [compound 869] |  | < 0.05 | 0.0254 |
| Cc1nc2cc(C(F)(F)F)c(N3CCN(C)C(CO)C3)c(C#N)c2c(=O)n1CCOc1ccc(Cl)cc1-c1ccnc2c(C(=O)O)csc12 (stereo not drawn) [compound 1261] | 0.0336 |  |  |
| Cc1cc(-c2cc(Cl)ccc2OCCn2c(C)nc3cnc(-c4ccccc4)c(C#N)c3c2=O)c2scc(C(=O)O)c2n1 [compound 1382] | 0.0216 |  |  |
| Cc1nc2ccc(Cl)c(C#N)c2c(=O)n1CCOc1ccc(Cl)cc1-c1ccnc2c(C(=O)O)csc12 [compound 244] |  | < 0.05 | 0.0312 |
| CCOP(=O)(OCC)c1csc2c(-c3cc(Cl)ccc3OCCn3c(C)nc4cc(C(F)(F)F)c(N5CCN(C6CC6)CC5)c(C#N)c4c3=O)ccnc12 [compound 1614] | 0.0314 |  |  |
| Cc1nc2cc(C(F)(F)F)c(N3CCN(C)CC3)c(C#N)c2c(=O)n1CCOc1ccc(Cl)cc1-c1ccnc2c(C(=O)O)csc12 [compound 834] |  | < 0.05 | 0.0316 |
| COCc1cc(F)c2cc(C)n(CCOc3ccc(Cl)cc3-c3ccnc4c(C(=O)O)csc34)c(=O)c2c1C#N [compound 533] |  | 0.05 to 1 | 0.0627 |
| Cc1nc2cnc(N3CCN(C4CC(F)(F)C4)CC3)c(C#N)c2c(=O)n1CC#Cc1ccc(Cl)cc1-c1ccnc2c(C(=O)O)csc12 [compound 1355] | 0.0248 |  |  |
| Cc1nc2ccc(S(=O)(=O)N3CCC3)c(C#N)c2c(=O)n1CCOc1ccc(Cl)cc1-c1ccnc2c(C(=O)O)csc12 [compound 248] |  | 0.05 to 1 | 0.0523 |
| C#Cc1c(C(=O)O)cccc1-c1cc(Cl)ccc1OCCn1cnc2cnc(C#N)cc2c1=O [compound 127] |  | 0.05 to 1 | 0.077 |
| Cc1nc2cnc(N(C)C3CCN(C4(C(F)(F)CO)CC4)CC3)c(C#N)c2c(=O)n1CC#Cc1ccc(Cl)cc1-c1ccnc2c(C(=O)O)csc12 [compound 1131] |  | < 0.05 | 0.0147 |
| Cc1ccc(-c2cc(Cl)ccc2OCCn2c(C)nc3cc(C(F)(F)F)c(N4CCN(C)CC4)c(C#N)c3c2=O)c2scc(C(=O)O)c12 [compound 1218] | 0.0131 | < 0.05 |  |
| Cc1nc2cnc(N(C)C3[C@@H]4C[C@H]3CN(CC(C)(F)F)C4)c(C#N)c2c(=O)n1CC#Cc1ccc(Cl)cc1-c1ccnc2c(C(=O)O)csc12 (stereo partly drawn) [compound 1691] | 0.0179 |  |  |
| Cc1nc2cc(C(F)(F)F)c(N3CCN(C)CC3)c(C#N)c2c(=O)n1CCOc1ccc(Cl)cc1-c1cccc(C(=O)O)c1 [compound 374] |  | < 0.05 | 0.0205 |
| Cc1nc2cnc(N(C)C3CCN(C(C)(C)CF)CC3)c(C#N)c2c(=O)n1CCOc1ccc(Cl)cc1-c1ccnc2c(C(=O)O)csc12 [compound 1429] | 0.0178 |  |  |
| Cc1nc2c(N3CCN(CCOC(F)(F)F)CC3)ncc(C#N)c2c(=O)n1CCOc1ccc(Cl)cc1-c1ccnc2c(C(=O)O)csc12 [compound 1395] | 0.0296 |  |  |
| Cc1nc2cnc(N3CC4(CCN4CC(C)(C)F)C3)c(C#N)c2c(=O)n1CCOc1ccc(Cl)cc1-c1ccnc2c(C(=O)O)csc12 [compound 1635] | 0.0215 |  |  |
| Cc1nc2cnc(C3=CCNCC3)c(C#N)c2c(=O)n1CCOc1ccc(Cl)cc1-c1ccnc2c(C(=O)O)csc12 [compound 1626] | 0.0303 |  |  |
| Cc1nc2cnc(N(C)C3CCN(CC4(CF)CCC4)CC3)c(C#N)c2c(=O)n1CC#Cc1ccc(Cl)cc1-c1ccnc2c(C(=O)O)csc12 [compound 1584] | 0.0369 |  |  |
